According to paper PMC4911231 (Journal of acquired immune deficiency syndromes (1999), 2016):
Values joined by “and” are separate entries in the source; they are usually repeats but may differ in a detail not shown here. Equal values may be shown once. Read-outs that look alike come from different tables or passages of the source. Marks after values point to notes of the source that are not given here.

Key:
[1] = cited from earlier work
[2] = for AUC24 geometric mean (90% CI) ratio: within-subject; for Tmax: mode (range); for Vd/F: Vd/F (apparent volume of distribution); for AUC: one subject on concomitant darunavir/ritonavir
[3] = tested on: HIV-1; test: Maternal plasma HIV-1 RNA; assay type: in vivo, human; conditions: rilpivirine with combination antiretrovirals
[4] = cited from earlier work; remark: listed apart in the source
[5] = cited from earlier work; remark: listed apart in the source
[6] = tested on: cytochrome P450 3A4 (CYP 3A4); conditions: cited from earlier work
[7] = Maternal safety, pregnancy and infant outcomes; assay type: in vivo, human
[8] = cited from earlier work; remark: listed apart in the source
[9] = Stability in stored plasma; assay type: physicochemical; conditions: plasma stored at −70°C
[10] = tested on: HIV-1; conditions: cited from earlier work
[11] = clinical; conditions: female, human, in vivo
[12] = 25 mg once daily, postpartum, median (range)
[13] = 25 mg once daily, second trimester, median (range)
[14] = 25 mg once daily, third trimester, median (range)
[15] = Second Trimester/Postpartum, n = 15
[16] = Second Trimester/Third Trimester, n = 15
[17] = Third Trimester/Postpartum, n = 28
[18] = female, human, plasma, oral, 25 mg, 25 mg once daily, second trimester, median (range)

CC(C)(C)NC(=O)[C@@H]1C[C@@H]2CCCC[C@@H]2CN1C[C@@H](O)[C@H](Cc1ccccc1)NC(=O)[C@H](CC(N)=O)NC(=O)c1ccc2ccccc2n1 [saquinavir]
AUC during pregnancy compared to postpartum ([1]; in vivo): significant decreases

Cc1cc(/C=C/C#N)cc(C)c1Nc1ccnc(Nc2ccc(C#N)cc2)n1 [Rilpivirine]
C0 (pre-dose concentration) [2, 12]: 69 (<10 – 285) ng/mL | C24 (24 hour post-dose concentration) [2, 12]: 81 (<10 – 299) ng/mL | Cmin (minimum observed concentration) [2, 12]: 58 (<10 – 200) ng/mL | C0 (pre-dose concentration) [2, 13]: 98(31 – 216) ^‡ ng/mL | C24 (24 hour post-dose concentration) [2, 13]: 63(37 – 225) ^* ng/mL | Cmin (minimum observed concentration) [2, 13]: 65(29 – 178) ng/mL | C0 (pre-dose concentration) [2, 14]: 56(<10 – 210) ng/mL | C24 (24 hour post-dose concentration) [2, 14]: 56(<10 – 181) ^† ng/mL | Cmin (minimum observed concentration) [2, 14]: 51(<10 – 136) ng/mL | Coefficient of variation (CV) for Cmax ([2]; 2nd trimester): 53% | Coefficient of variation (CV) for Cmin ([2]; 2nd trimester): 55% | Coefficient of variation (CV) for AUC ([2]; 2nd trimester, between-subject): 186% | Coefficient of variation (CV) for AUC ([2]; 3rd trimester): 194% | Coefficient of variation (CV) for Cmax ([2]; 3rd trimester): 212% | Coefficient of variation (CV) for Cmin ([2]; 3rd trimester): 154% | Minimum plasma concentration (Cmin), median (range) ([2]; 14 visits with detectable HIV-1 RNA): 30 (<10 – 93) ng/mL and 30 ng/mL | Minimum plasma concentration (Cmin), median (range) ([2]; 62 visits with undetectable HIV-1 RNA): 63 (15 – 199) ng/mL and 63 ng/mL | C0 geometric mean (90% CI) ratio [2, 15]: 0.91 (0.61 – 1.38) | C24 geometric mean (90% CI) ratio [2, 15]: 0.70 (0.55 – 0.90) | CL/F geometric mean (90% CI) ratio [2, 15]: 1.33 (1.04 – 1.70) | Cmax geometric mean (90% CI) ratio [2, 15]: 0.84 (0.69 – 1.02) | Cmin geometric mean (90% CI) ratio [2, 15]: 0.88 (0.63 – 1.21) | Vd/F geometric mean (90% CI) ratio [2, 15]: 1.50 (0.58 – 3.93) | AUC24 geometric mean (90% CI) ratio [2, 15]: 0.77 (0.61 – 0.96) | C0 geometric mean (90% CI) ratio [2, 16]: 1.30 (1.06 – 1.60) | C24 geometric mean (90% CI) ratio [2, 16]: 1.09 (0.95 – 1.26) | CL/F geometric mean (90% CI) ratio [2, 16]: 0.92 (0.81 – 1.05) | Cmax geometric mean (90% CI) ratio [2, 16]: 1.13 (0.96 – 1.34) | Cmin geometric mean (90% CI) ratio [2, 16]: 1.22(1.02 – 1.45) | Vd/F geometric mean (90% CI) ratio [2, 16]: 0.36(0.22 – 0.58) | AUC24 geometric mean (90% CI) ratio [2, 16]: 1.09 (0.96 – 1.23) | C0 geometric mean (90% CI) ratio [2, 17]: 0.94 (0.59 – 1.50) | C24 geometric mean (90% CI) ratio [2, 17]: 0.84 (0.57 – 1.23) | CL/F geometric mean (90% CI) ratio [2, 17]: 1.26 (0.97 – 1.64) | Cmax geometric mean (90% CI) ratio [2, 17]: 0.83 (0.68 – 1.01) | Cmin geometric mean (90% CI) ratio [2, 17]: 1.11 (0.70 – 1.74) | Vd/F geometric mean (90% CI) ratio [2, 17]: 1.42 (0.68 – 2.97) | AUC24 geometric mean (90% CI) ratio [2, 17]: 0.80 (0.62 – 1.03) | concentration at 24 h ([2]; female, human, plasma, oral, 25 mg, C24 (24 hour post-dose concentration), 25 mg once daily, second trimester, median (range)): 63 ng/mL | Cmax ([2]; female, human, plasma, oral, 25 mg, 25 mg once daily, postpartum, median (range)): 134 ng/mL | Cmax [2, 18]: 145 ng/mL | Tmax ([2]; female, human, plasma, oral, 25 mg, 25 mg once daily, postpartum): 4 h | Tmax ([2]; female, human, plasma, oral, 25 mg, 25 mg once daily, third trimester): 2 h | Vd/F [2, 18]: 750 L | Vd/F ([2]; female, human, plasma, oral, 25 mg, 25 mg once daily, third trimester, median (range)): 1210 L | AUC ([2]; human, plasma, oral, 25 mg, second trimester): 12400 ng·h/mL | AUC ([2]; human, plasma, oral, 25 mg, third trimester): 3600 ng·h/mL | Coefficient of variation (CV) for AUC ([2]; postpartum): 60% | Coefficient of variation (CV) for Cmax ([2]; postpartum): 58% | Coefficient of variation (CV) for Cmin ([2]; postpartum): 71% | Women below the AUC0–24 10th percentile target (880 ng*hr/mL) ([2]; postpartum, 3 of 28): 11% | Women with absorption lag (1 hour post-dose concentration less than pre-dose) ([2]; postpartum, 11 of 28): 39% | C24 lower vs. postpartum ([2]; second trimester): 30% | Reduction of AUC compared to postpartum ([2]; second trimester): 23% | Women below the AUC0–24 10th percentile target (880 ng*hr/mL) ([2]; second trimester, 1 of 15): 7% | Women with absorption lag (1 hour post-dose concentration less than pre-dose) ([2]; second trimester, 9 of 18): 50% | C24 lower vs. postpartum ([2]; third trimester): 16% | Reduction of drug exposure (AUC) compared to postpartum ([2]; third trimester): 20% | Women below the AUC0–24 10th percentile target (880 ng*hr/mL) ([2]; third trimester, 2 of 28): 7% | Women with absorption lag (1 hour post-dose concentration less than pre-dose) ([2]; third trimester, 13 of 30): 43% | HIV-1 RNA at 2nd trimester, median (range) [3]: < 40 (<20 – 2770) copies/mL | HIV-1 RNA at 3rd trimester, median (range) [3]: < 20 (<20 – 48700) copies/mL | HIV-1 RNA at Delivery, median (range) [3]: < 20 (<16 – 48700) copies/mL | Cord blood to maternal plasma ratio ([4]; one person): 0.74 | Reduction in exposure during pregnancy compared to postpartum ([4]; two women, one value each): 30% and 43% | Coefficient of variation (CV) for AUC ([5]; human, in vivo): 38% | 10th percentile rilpivirine AUC ([5]; non-pregnant adults): 880 ng·h/mL | Substrate of cytochrome P450 3A4 [6]: substrate | Number of preterm deliveries ([7]; at 32, 35, and 36 weeks, N of 30): 3 (10%) | Gestational age at delivery, median (range) ([7]; in vivo): 38.9 (32.3 – 41.4) weeks | Infant Birth weight, median (range) ([7]; in vivo): 3095 (1570 – 4570) g | Tolerability ([7]; pregnant and postpartum women, 25 mg once daily): well tolerated | Bound to protein [8]: 99.7% | Stability in plasma [9]: 2 years | median EC50 [10]: 0.27 ng/mL | median EC90 [10]: 0.66 ng/mL | protein binding-adjusted EC50 [10]: 5.0 ng/mL | Kp [11]: 0.55 | Maternal plasma rilpivirine concentration at delivery, median (range) [11]: 103.3 (<10 to 273.4) ng/mL | Umbilical cord blood rilpivirine concentration at delivery, median (range) [11]: 53.78 (<10 to 219.7) ng/mL

Cc1cccc(C)c1OCC(=O)N[C@@H](Cc1ccccc1)[C@@H](O)C[C@H](Cc1ccccc1)NC(=O)[C@H](C(C)C)N1CCCNC1=O [lopinavir]
AUC during pregnancy compared to postpartum ([1]; in vivo): significant decreases

O=C1Nc2ccc(Cl)cc2[C@@](C#CC2CC2)(C(F)(F)F)O1 [efavirenz]
Clearance during pregnancy [1]: increased

Cc1c(O)cccc1C(=O)N[C@@H](CSc1ccccc1)[C@H](O)CN1C[C@H]2CCCC[C@H]2C[C@H]1C(=O)NC(C)(C)C [nelfinavir]
AUC during pregnancy compared to postpartum ([1]; HIV protease inhibitors): significant decreases

CC(C)CN(C[C@@H](OP(=O)(O)O)[C@H](Cc1ccccc1)NC(=O)O[C@H]1CCOC1)S(=O)(=O)c1ccc(N)cc1 [fosamprenavir]
AUC during pregnancy compared to postpartum ([1]; in vivo): significant decreases

CC(C)CN(C[C@@H](O)[C@H](Cc1ccccc1)NC(=O)O[C@H]1CO[C@H]2OCC[C@H]21)S(=O)(=O)c1ccc(N)cc1 [darunavir]
AUC during pregnancy compared to postpartum ([1]; HIV protease inhibitors): significant decreases

CC(C)(C)NC(=O)[C@@H]1CN(Cc2cccnc2)CCN1C[C@@H](O)C[C@@H](Cc1ccccc1)C(=O)N[C@H]1c2ccccc2C[C@H]1O [indinavir]
AUC during pregnancy compared to postpartum ([1]; in vivo): significant decreases

COC(=O)N[C@H](C(=O)N[C@@H](Cc1ccccc1)[C@@H](O)CN(Cc1ccc(-c2ccccn2)cc1)NC(=O)[C@@H](NC(=O)OC)C(C)(C)C)C(C)(C)C [atazanavir]
AUC during pregnancy compared to postpartum ([1]; HIV protease inhibitors): significant decreases

Cc1ccnc2c1NC(=O)c1cccnc1N2C1CC1 [nevirapine]
AUC reduced during third trimester compared to postpartum ([1]; in vivo): 20% | Cmax reduced during third trimester compared to postpartum ([1]; in vivo): 20% | Cmin reduced during third trimester compared to postpartum ([1]; in vivo): 20%

Cc1cc(C#N)cc(C)c1Oc1nc(Nc2ccc(C#N)cc2)nc(N)c1Br [etravirine]
Exposure during pregnancy compared to postpartum [1]: increased
